Blank lines part the entries; values can stand above or below the compound they belong to. Numbered stars: 1 amine (or outer) side, 2 acyl side, 3 side chain; on linkers, the order of the positions; unused ones are H or OH. Square brackets hold non-standard residues; d marks the D form. Peptide text beside a SMILES is read from it. * marks the point of attachment. X1 = N#Cc1cnc2ccc(-c3c(-c4ccc(F)c(Cl)c4)ncn3CCOCN*)nn12; C18 diacid = O=C(O)CCCCCCCCCCCCCCCCC(=O)*; C16 diacid = O=C(O)CCCCCCCCCCCCCCC(=O)*; γGlu = O=C(O)[C@H](CCC(=O)[*:2])N[*:1]; PABC = O=C(OCc1ccc(N[*:1])cc1)[*:2]; AEEA = NCCOCCOCC(=O)O
Legend:
[1] = Stability in mouse plasma assessed as parent compound remaining after 24 hrs by HPLC-MS analysis; type: ADME, cell-free; settings: read-out: Stability
[2] = Stability in rat plasma assessed as parent compound remaining after 24 hrs by HPLC-MS analysis; type: ADME, cell-free; settings: read-out: Stability
[3] = Drug concentration in C57BL/6 mouse plasma at 6 mg/kg,iv and measured after 24 hrs by LC-MS/MS analysis; type: ADME, organism-based
[4] = Prodrug conversion in heart of C57BL/6 mouse xenografted mouse MC38 cells assessed as BMS-986260 Tmax at 8 mg/kg,iv and measured after 48 hrs by LC-MS/MS analysis; type: ADME, organism-based, MC-38; settings: in vivo
[5] = Prodrug conversion in blood of C57BL/6 mouse xenografted mouse MC38 cells assessed as BMS-986260 AUC (0 to 48 hrs) at 8 mg/kg,iv and measured after 48 hrs by LC-MS/MS analysis; type: ADME, organism-based, MC-38; parameters: dose 8 mg/kg, time 48 hrs, route iv; settings: in vivo
[6] = Prodrug conversion in tumor of C57BL/6 mouse xenografted mouse MC38 cells assessed as BMS-986260 Tmax at 8 mg/kg,iv and measured after 48 hrs by LC-MS/MS analysis; type: ADME, organism-based, Neoplasm, MC-38; settings: in vivo
[7] = AUC in C57BL/6 mouse plasma at 6 mg/kg,iv and measured upto 24 hrs by LC-MS/MS analysis; type: ADME, organism-based; parameters: dose 6 mg/kg, time < 24 hrs, route iv
[8] = Prodrug conversion in C57BL/6 mouse xenografted mouse MC38 cells assessed as BMS-986260 ratio of AUC in tumor to blood at 8 mg/kg,iv and measured after 48 hrs by LC-MS/MS analysis; type: ADME, organism-based, MC-38; settings: tumour
[9] = Prodrug conversion in heart of C57BL/6 mouse xenografted mouse MC38 cells assessed as BMS-986260 AUC (0 to 48 hrs) at 8 mg/kg,iv and measured after 48 hrs by LC-MS/MS analysis; type: ADME, organism-based, MC-38; parameters: time 48 hrs, dose 8 mg/kg, route iv; settings: in vivo
[10] = Prodrug conversion in C57BL/6 mouse xenografted mouse MC38 cells assessed as BMS-986260 ratio of AUC in tumor to heart at 8 mg/kg,iv and measured after 48 hrs by LC-MS/MS analysis; type: ADME, organism-based, MC-38; settings: in vivo
[11] = Prodrug conversion in C57BL/6 mouse xenografted mouse MC38 cells assessed as BMS-986260 ratio of AUC in heart to blood at 8 mg/kg,iv and measured after 48 hrs by LC-MS/MS analysis; type: ADME, organism-based, MC-38; settings: other tissue
[12] = Prodrug conversion in tumor of C57BL/6 mouse xenografted mouse MC38 cells assessed as BMS-986260 Cmax at 8 mg/kg,iv and measured after 48 hrs by LC-MS/MS analysis; type: ADME, organism-based, Neoplasm, MC-38; parameters: dose 8 mg/kg, time 48 hrs, route iv; settings: in vivo
[13] = Prodrug conversion in blood of C57BL/6 mouse xenografted mouse MC38 cells assessed as BMS-986260 Tmax at 8 mg/kg,iv and measured after 48 hrs by LC-MS/MS analysis; type: ADME, organism-based, MC-38; settings: in vivo
[14] = Prodrug conversion in blood of C57BL/6 mouse xenografted mouse MC38 cells assessed as BMS-986260 Cmax at 8 mg/kg,iv and measured after 48 hrs by LC-MS/MS analysis; type: ADME, organism-based, MC-38; parameters: time 48 hrs, dose 8 mg/kg, route iv; settings: in vivo
[15] = Prodrug conversion in heart of C57BL/6 mouse xenografted mouse MC38 cells assessed as BMS-986260 Cmax at 8 mg/kg,iv and measured after 48 hrs by LC-MS/MS analysis; type: ADME, organism-based, MC-38; parameters: time 48 hrs, dose 8 mg/kg, route iv; settings: in vivo
[16] = Prodrug conversion in tumor of C57BL/6 mouse xenografted mouse MC38 cells assessed as BMS-986260 AUC (0 to 48 hrs) at 8 mg/kg,iv and measured after 48 hrs by LC-MS/MS analysis; type: ADME, organism-based, Neoplasm, MC-38; parameters: dose 8 mg/kg, time 48 hrs, route iv; settings: in vivo

remaining at 24 h [1]: 6%
SMILES: CC(=O)N[C@@H](CC(C)C)C(=O)N[C@@H](CO)C(=O)NCC(=O)N[C@@H](CCCCN)C(=O)Nc1ccc(COC(=O)NCOCCn2cnc(-c3ccc(F)c(Cl)c3)c2-c2ccc3ncc(C#N)n3n2)cc1 (Ac-LSGK[PABC]-X1)

remaining at 24 h [1]: 54%
SMILES: CC(C)C[C@H](NC(=O)COCCOCCNC(=O)COCCOCCNC(=O)CC[C@H](NC(=O)CCCCCCCCCCCCCCC(=O)O)C(=O)O)C(=O)N[C@@H](CO)C(=O)NCC(=O)N[C@@H](CCCCN)C(=O)Nc1ccc(COC(=O)NCOCCn2cnc(-c3ccc(F)c(Cl)c3)c2-c2ccc3ncc(C#N)n3n2)cc1 ({C16 diacid-γGlu-AEEA-AEEA}-LSGK[PABC]-X1)

remaining at 24 h [2]: 77%
remaining at 24 h [1]: 84%
concentration at 24 h [3]: > 1000 nM
SMILES: CC(C)C[C@H](NC(=O)CC[C@H](NC(=O)CCCCCCCCCCCCCCCCC(=O)O)C(=O)O)C(=O)N[C@@H](CO)C(=O)NCC(=O)N[C@@H](CCCCN)C(=O)Nc1ccc(COC(=O)NCOCCn2cnc(-c3ccc(F)c(Cl)c3)c2-c2ccc3ncc(C#N)n3n2)cc1 ({C18 diacid-γGlu}-LSGK[PABC]-X1)

remaining at 24 h [2]: 84%
Tmax [4]: 8 h
AUC [5]: 3 µM·h
Tmax [6]: 1 h
AUC at 24 h [7]: 348 µM·h
Ratio AUC [8]: 2.2
AUC [9]: 5.4 µM·h
Ratio AUC [10]: 1.2
Ratio AUC [11]: 1.8
Cmax [12]: 470 nM
remaining at 24 h [1]: 79%
concentration at 24 h [3]: > 1000 nM
Tmax [13]: 4 h
Cmax [14]: 160 nM
Cmax [15]: 300 nM
AUC [16]: 6.6 µM·h
SMILES: CC(C)C[C@H](NC(=O)COCCOCCNC(=O)COCCOCCNC(=O)CC[C@H](NC(=O)CCCCCCCCCCCCCCCCC(=O)O)C(=O)O)C(=O)N[C@@H](CO)C(=O)NCC(=O)N[C@@H](CCCCN)C(=O)Nc1ccc(COC(=O)NCOCCn2cnc(-c3ccc(F)c(Cl)c3)c2-c2ccc3ncc(C#N)n3n2)cc1 ({C18 diacid-γGlu-AEEA-AEEA}-LSGK[PABC]-X1)
